Patent US9790169B2, “IDO inhibitors” (BRISTOL-MYERS SQUIBB COMPANY, priority 2015, dated 2017)

Target: human IDO1 (Homo sapiens, UniProt P14902)
Test: Assessment of human IDO-1 inhibitory activity in HEK cells (human IDO1/HEK293 cells, kynurenine read-out with Ehrlich reagent, absorbance 490 nm)
Type: cell-based
Set-up: expressed in transfected cells
Details: HEK Human IDO-1 cellular assay
In short: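 HEK293 cells stably expressing human IDO1 were seeded at 10,000 per well in phenol red-free RPMI with 10% FBS, treated with compound for 20 h at 37 °C. Kynurenine was measured after TCA (0.2% final) and 30 min at 50 °C, using Ehrlich reagent, A490. IC50 normalised to DMSO (0%) and 500 nM reference standard (100%).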

human IDO1, sequence (P14902 whole entry): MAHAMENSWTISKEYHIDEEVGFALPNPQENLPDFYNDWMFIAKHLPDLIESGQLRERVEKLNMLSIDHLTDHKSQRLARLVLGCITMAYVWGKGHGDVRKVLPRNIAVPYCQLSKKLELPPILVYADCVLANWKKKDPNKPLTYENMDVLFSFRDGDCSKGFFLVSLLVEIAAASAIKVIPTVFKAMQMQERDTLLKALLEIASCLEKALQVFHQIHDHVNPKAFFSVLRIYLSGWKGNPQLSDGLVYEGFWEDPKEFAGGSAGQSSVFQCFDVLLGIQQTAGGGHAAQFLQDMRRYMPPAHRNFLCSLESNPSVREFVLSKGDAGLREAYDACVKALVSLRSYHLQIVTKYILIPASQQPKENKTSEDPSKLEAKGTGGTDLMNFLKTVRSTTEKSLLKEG

CCOc1ncc(Nc2cc(C(CC)CC(=O)O)ccc2N(CC2CC2)C2CCOCC2)cn1 (single isomer, unassigned) [Example 705, 3-(4-((cyclopropylmethyl) (tetrahydro-2H-pyran-4-yl)amino)-3-((2-ethoxypyrimidin-5-yl)amino)phenyl)pentanoic acid] was tested, and the IC50 was less than 5 nM.

Compound CCC(CC(=O)O)c1cc(NC(=O)Nc2cncnc2)c(N(CC(C)C)C2CCCCC2)cc1F (single isomer, unassigned) [Example 1123, 3-(4-(cyclohexyl(isobutyl)amino)-2-fluoro-5-(3-(pyrimidin-5-yl)ureido)phenyl)pentanoic acid] has an IC50 of less than 5 nM.

COc1ncc(Nc2cc(C(C)CC(=O)O)ccc2N(CC(C)(C)O)C2CCOCC2)cn1 (single isomer, unassigned) [Example 192, 3-(4-((2-hydroxy-2-methylpropyl)(tetrahydro-2H-pyran-4-yl)amino)-3-((2-methoxypyrimidin-5-yl)amino)phenyl)butanoic acid] was tested, and the IC50 was greater than 50 nM.

Compound COCC(CC(=O)O)c1ccc(N(CC2CC2)C2CCOCC2)c(Nc2ccc(Cl)c(OCC3CC3)c2)c1 (single isomer, unassigned) [Example 683, 3-(3-((4-chloro-3-(cyclopropylmethoxy)phenyl)amino)-4-((cyclopropylmethyl) (tetrahydro-2H-pyran-4-yl)amino)phenyl)-4-methoxybutanoic acid] has an IC50 greater than 50 nM.

For CCC(CC(=O)O)c1ccc(N2CCC[C@@H]2C(C)(C)O)c(Nc2ccc(Cl)cc2)c1 (single isomer, unassigned) [Example 783], the IC50 was less than 5 nM.

In the case of CC[C@@H](CC(=O)O)c1ccc(N(CC)C2CCOCC2)c(Nc2cnc(OCC3CC3)nc2)c1 (single isomer, unassigned) [Example 480], the IC50 is reported as less than 5 nM.

Compound COc1ncc(Nc2cc(C(C)CC(=O)O)ccc2N2C[C@@H](C)O[C@@H](C)C2)cn1 (single isomer, unassigned) [Example 741] has an IC50 greater than 50 nM.

CC(CC(=O)O)c1ccc(N2C[C@@H](C)O[C@@H](C)C2)c(Nc2ccc(F)cc2)c1 (single isomer, unassigned) [Example 738] showed an IC50 greater than 50 nM.

In the case of CC(C)CN(c1ccc(C(COCC2CC2(F)F)CC(=O)O)cc1NC(=O)Nc1ccc(Cl)cc1F)C1CCCCC1 (racemic) [Example 1002, (+/−)-3-(3-(3-(4-Chloro-2-fluorophenyl)ureido)-4-(cyclohexyl(isobutyl)amino)phenyl)-4-((2,2-difluorocyclopropyl)methoxy)butanoic acid], the IC50 is reported as less than 50 nM.

With COCC(CC(=O)O)c1cc(F)c(N(CC(C)C)CC(C)C)c(NC(=O)Nc2cncnc2)c1 (single isomer, unassigned) [Example 1183, 3-(4-(Diisobutylamino)-3-fluoro-5-(3-(pyrimidin-5-yl)ureido)phenyl)-4-methoxybutanoic acid] the IC50 was less than 50 nM.

CCC(CC(=O)O)c1cc(F)c(N(CC(C)C)CC(C)C)c(Nc2ccc(F)cc2)c1 (single isomer, unassigned) [Example 100, 3-(4-(diisobutylamino)-3-fluoro-5-((4-fluorophenyl)amino)phenyl)pentanoic acid] was tested, and the IC50 was less than 5 nM.

CC[C@@H](CC(=O)O)c1ccc(N2CCOC[C@@H]2C(C)C)c(NC(=O)Nc2cc(C)on2)c1 (single isomer, unassigned) [Example 77] gave an IC50 greater than 50 nM.

In the case of CCC(CC(=O)O)c1ccc(N2CC[C@H](O)C2)c(Nc2ccc(Cl)cc2)c1 (single isomer, unassigned) [Example 266], the IC50 is reported as greater than 50 nM.

CCC(CC(=O)O)c1cc(F)c(N(CC(C)C)CC(C)C)c(NC(=O)Nc2cc(C(F)(F)F)ccc2F)c1 (racemic) [Example 976, (+/−)-3-(4-(diisobutylamino)-3-fluoro-5-(3-(2-fluoro-5-(trifluoromethyl)phenyl)ureido)phenyl)pentanoic acid] showed an IC50 of less than 50 nM.

In the case of CCN(c1ccc(C(C)(C)CC(=O)O)cc1Nc1cnc(OC)nc1)C1CCOCC1 [Example 162, 3-(4-(ethyl(tetrahydro-2H-pyran-4-yl)amino)-3-((2-methoxypyrimidin-5-yl)amino)phenyl)-3-methylbutanoic acid], the IC50 is reported as less than 50 nM.

In the case of CC(CC(=O)O)c1ccc(N2C[C@@H](C)O[C@@H](C)C2)c(Nc2ccc(Cl)cc2)c1 (single isomer, unassigned) [Example 745], the IC50 is reported as less than 50 nM.

Compound COCC(CC(=O)O)c1ccc(N(CC2CC2)C2CCOCC2)c(Nc2ccc(C(N)=O)nc2)c1 (single isomer, unassigned) [Example 688, 3-(3-((6-carbamoylpyridin-3-yl)amino)-4-((cyclopropylmethyl) (tetrahydro-2H-pyran-4-yl)amino)phenyl)-4-methoxybutanoic acid] has an IC50 greater than 50 nM.

CCOc1ccc(NC(=O)Nc2cc(C(CC)CC(=O)O)ccc2N2CCC[C@H]2C(C)(C)O)cc1 (single isomer, unassigned) [Example 826] showed an IC50 greater than 50 nM.

Work on CC[C@H](CC(=O)O)c1ccc(N(CC)C2CCOCC2)c(NC(=O)Nc2cc(C)on2)c1 (single isomer, unassigned) [Example 534] yielded an IC50 greater than 50 nM.

With CCC(CC(=O)O)c1ccc(N2CCC[C@H]2C(C)(C)O)c(Nc2ccc(C#N)cc2)c1 (single isomer, unassigned) [Example 825] the IC50 was less than 50 nM.

Work on CC[C@H](CC(=O)O)c1ccc(N(CC(C)C)C2CCS(=O)(=O)CC2)c(Nc2ccc3c(c2)OC(F)(F)O3)c1 (single isomer, unassigned) [Example 215] yielded an IC50 of less than 5 nM.

For CC[C@H](CC(=O)O)c1ccc(N(CC)C2CCOCC2)c(Nc2ccn3nc(C)c(F)c3c2)c1 (single isomer, unassigned) [Example 513], the IC50 was less than 50 nM.

For CCC(CC(=O)O)c1ccc(N2CCOC[C@H]2C(C)C)c(Nc2ccc3c(c2)OC(F)(F)O3)c1 (single isomer, unassigned) [Example 893], the IC50 was greater than 50 nM.

Work on COCC(CC(=O)O)c1ccc(N(CC2CC2)C2CCOCC2)c(Nc2ccc(Cl)cc2)c1 (single isomer, unassigned) [Example 679, 3-(3-((4-Chlorophenyl)amino)-4-((cyclopropylmethyl)(tetrahydro-2H-pyran-4-yl)amino)phenyl)-4-methoxybutanoic acid] yielded an IC50 of less than 5 nM.

CCCN(c1ccc([C@@H](CC)CC(=O)O)cc1Nc1cnc(OCC)nc1)C1CCOCC1 (single isomer, unassigned) [Example 535] showed an IC50 of less than 5 nM.

CCN(c1ccc(C(C)(C)CC(=O)O)cc1Nc1ccc(F)cc1)C1CCC(C)(O)CC1 (stereo not shown) [Example 2, 3-(4-(ethyl(4-hydroxy-4-methylcyclohexyl)amino)-3-((4-fluorophenyl)amino)phenyl)-3-methylbutanoic acid] was tested, and the IC50 was less than 5 nM.

In the case of CCC(CC(=O)O)c1ccc(N(CC(C)C)C2CCCCC2)c(NC(=O)Cc2cc(F)ccc2F)c1 (single isomer, unassigned) [Example 1098 E1], the IC50 is reported as less than 5 nM.

In the case of Cc1ccc(NC(=O)Nc2cc(C(C)CC(=O)O)c(F)cc2N(CC(C)C)C2CCCCC2)cc1 (racemic) [Example 955, (+/−)-3-(4-(Cyclohexyl(isobutyl)amino)-2-fluoro-5-(3-(p-tolyl)ureido)phenyl)butanoic acid], the IC50 is reported as less than 5 nM.

COCC(CC(=O)O)c1ccc(N(CC(C)C)C2CCCCC2)c(NC(=O)Nc2ccc(OC(F)(F)F)cc2)c1 (single isomer, unassigned) [Example 1244, 3-(4-(Cyclohexyl(isobutyl)amino)-3-(3-(4-(trifluoromethoxy)phenyl)ureido)phenyl)-4-methoxybutanoic acid] gave an IC50 of less than 5 nM.

CCOc1ccc(Nc2cc(C(CC)CC(=O)O)ccc2N2CCOC[C@H]2C(C)C)cc1 (single isomer, unassigned) [Example 894] was tested, and the IC50 was less than 50 nM.

CCC(CC(=O)O)c1ccc(N(CC(C)C)C2CCCCC2)c(Nc2ccc(OC(F)(F)F)cc2)c1 (single isomer, unassigned) [Example 312, 3-(4-(cyclohexyl(isobutyl)amino)-3-((4-(trifluoromethoxy)phenyl)amino)phenyl)pentanoic acid] gave an IC50 of less than 5 nM.

For Cc1ccc(CC(=O)Nc2cc(C(CC(=O)O)C(C)C)ccc2N(CC(C)C)CC(C)C)cc1 (racemic) [Example 1010], the IC50 was less than 5 nM.

For CCC(CC(=O)O)c1cc(NC(=O)Nc2cnc(C)nc2)c(N(CC(C)C)C2CCCCC2)cc1F (racemic) [Example 1125, (±)-3-(4-(Cyclohexyl(isobutyl)amino)-2-fluoro-5-(3-(2-methylpyrimidin-5-yl)ureido)phenyl)pentanoic acid], the IC50 was less than 5 nM.

CC[C@H](CC(=O)O)c1ccc(N(CC(C)C)CC(C)C)c(Nc2ccc3nc(C)sc3c2)c1 (single isomer, unassigned) [Example 10] was tested, and the IC50 was greater than 50 nM.

CCC(CC(=O)O)c1ccc(N(CC(C)C)C2CCCCC2)c(NC(=O)C(F)(F)c2ccc(C)cc2)c1 (racemic) [Example 1075, 3-(4-(Cyclohexyl(isobutyl)amino)-3-(2,2-difluoro-2-(p-tolyl)acetamido)phenyl)pentanoic acid] was tested, and the IC50 was greater than 50 nM.

With CCCN(CC1CC1)c1ccc(C(CC)CC(=O)O)cc1Nc1ccc2nc(C)sc2c1 (single isomer, unassigned) [Example 661, 3-(4-((cyclopropylmethyl)(propyl)amino)-3-((2-methylbenzo[d]thiazol-6-yl)amino)phenyl) pentanoic acid] the IC50 was greater than 50 nM.

With CCN(c1ccc(C(CC(=O)O)c2ccccc2)cc1NC(=O)Nc1ccc(Cl)cc1F)C1CCOCC1 (single isomer, unassigned) [Example 585, 3-(3-(3-(4-chloro-2-fluorophenyl)ureido)-4-(ethyl (tetrahydro-2H-pyran-4-yl)amino)phenyl)-3-phenylpropanoic acid] the IC50 was less than 50 nM.

“3-(4-(isobutyl(tetrahydro-2H-pyran-4-yl)amino)-3-(3-(4-phenoxyphenyl)ureido)phenyl)butanoic acid [Example 962]” showed an IC50 greater than 50 nM.

In the case of CCC(CC(=O)O)c1ccc(N2CCOC[C@H]2C(C)C)c(Nc2ccc(Cl)cc2)c1 (single isomer, unassigned) [Example 900], the IC50 is reported as less than 5 nM.

In the case of CCC(CC(=O)O)c1ccc(N(CC(C)C)C2CCCCC2)c(Nc2ccc(C)cc2)c1 (single isomer, unassigned) [Example 304, 3-(4-(cyclohexyl(isobutyl)amino)-3-(p-tolylamino)phenyl)pentanoic acid], the IC50 is reported as less than 5 nM.
